From patent publication US12103916B2, “Antifungal compounds” (University of Kentucky Research Foundation, priority 2016, dated 2024)
Like-named read-outs stand apart in the source and are kept apart here. Marks after values point to notes of the source that are not given here.

How the values were obtained:
[1] = test system: Candida glabrata ATCC 2001; assay: MIC determination, strain H; format: cell-based; conditions: Nakaseomyces glabratus, ATCC2001
Experimental: (§1) The antifungal activity of our new azole compounds 1-9 and 24-41 was first evaluated against a panel of seven Candida albicans strains (A-G), three non-albicans Candida strains […], and three Aspergillus strains (K-M) in a concentration range of 0.03-31.2 μg/mL (Table 1). […] For all of our azole derivatives we report their MIC-0 values against C. albicans ATCC 10231 (strain A) and all Aspergillus strains (K-M), which correspond to complete growth inhibition of these fungi. […] The commercially available antifungals AmB, FLC, ITC, POS, and VOR were used as reference drugs for comparison. The MIC values presented for these five control drugs were either tested herein or correspond to our previously published data^5, 16 as indicated in Table 1.
(§2) Antifungal activity in the absence or presence of serum. The antifungal activity of the newly prepared alkylated piperazine/morpholine-azole hybrids 16-28, of intermediate 14 that we used to verify that only final compounds exert antifungal activity, as well as that of alkylated piperazine/morpholine derivatives 1-10 were first evaluated against a panel of seven C. albicans (ATCC 10231 (A), ATCC 64124(R) (B), ATCC MYA-2876(S) (C), ATCC 90819(R) (D), ATCC MYA-2310(S) (E), ATCC MYA-1237(R) (F), and ATCC MYA-1003(R) (G)), three non-albicans Candida (C. glabrata ATCC 2001 (H), C. krusei ATCC 6258 (I), and C. parapsilosis ATCC 22019 (J)), and three Aspergillus (A. flavus ATCC MYA-3631 (K), A. nidulans ATCC 38163 (L), and A. terreus ATCC MYA-3633 (M)) strains using a concentration range of 0.03-31.3 μg/mL (Table 2).
(§3) Commercially available antifungal agents such as AmB, CAS, FLC, and VOR were used as positive controls for comparison. […] It is important to note that all comparisons to follow will be done by using the MIC values reported in μg/mL as the data were collected that way. However, we also present in parentheses in Table 2 the corresponding values in micromolar.
(§4) We used the commercially available antifungal agents such as AmB, caspofungin (CAS), FLC, and VOR as positive controls for comparison. For derivatives 5-16 as well as the reference drugs AmB and CAS, we reported MIC-0 values, which correspond to no visible growth. […] In this manuscript, we performed all activity comparisons by using the MIC values reported in μg/mL (Note: the corresponding MIC values are also provided in μM into parentheses in Tables 1, 2, S1, and S2).

Candida krusei ATCC 6258 [2] = assay: MIC determination, strain I; format: cell-based; conditions: Pichia kudriavzevii, ATCC6258
Experimental: as §1, §2, §3, §4

[3] = test system: Candida parapsilosis ATCC 22019; assay: MIC determination, strain J; format: cell-based; conditions: Lodderomyces parapsilosis
Experimental: as §1, §2, §3, §4

[4] = test system: cell membrane integrity of C. albicans ATCC 10231 (strain A); assay: Membrane permeabilization assay (propidium iodide uptake); format: cell-based, Candida albicans; conditions: Ex.3 series; 4×MIC
Experimental: FIG. 20 includes the Effect of the controls VOR (negative) and KANB (C14) (positive) as well as compounds 5-9 on the cell membrane integrity of C. albicans ATCC 10231 (strain A). […] The experiments were performed in duplicate.
PI is a membrane impermeable dye that cannot enter the intact cell unless the cell membrane is damaged. Using these compounds, we also wanted to determine how do the lengths of the alkyl side chains correlate with the membrane disruption potential of these antifungal agents.
Membrane permeabilization assay. […] Based on these findings, we assumed that the hybrids generated in this study could also potentially cause fungal death by disrupting the fungal membrane. To investigate this possible mechanism of action, we evaluated the effect of compounds 20 and 26 on fungal cell membrane integrity by using propidium iodide (PI) dye as a probe (FIG. 12). […] Afterwards, the dye binds to nucleic acid and fluoresces, which can be observed under a fluorescence microscope. […]
Therefore, we decided to study the potential effect of compounds 8 and 9 with C12 and C14 linear alkyl chains to determine the impact of chain length on membrane disruption (FIG. 20). […] The propidium iodide (PI) dye was used as a probe as it can only enter cells with compromised membrane and bind to nucleic acid to emit fluorescence, which can be observed under a fluorescence microscope. […]

[5] = test system: Candida albicans ATCC 10231; conditions: Table 1; strain A; control azoles FLC, ITC, POS, VOR; previously reported (refs 5, 16); cited from earlier work
C. albicans ATCC 64124 = conditions: Table 1; strain B; control azoles; previously reported (refs 5, 16); cited from earlier work
[6] = test system: C. albicans ATCC MYA-1237(R); conditions: Table 1; strain F; control azoles; previously reported (refs 5, 16); cited from earlier work
[7] = test system: Candida glabrata ATCC 2001; conditions: Table 1; strain H; control azoles; previously reported (refs 5, 16); cited from earlier work
Candida krusei ATCC 6258 [8] = conditions: Table 1; strain I; control azoles; previously reported (refs 5, 16); cited from earlier work
[9] = test system: Candida parapsilosis ATCC 22019; conditions: Table 1; strain J; control azoles; previously reported (refs 5, 16); cited from earlier work
[10] = test system: Aspergillus nidulans ATCC 38163; conditions: Table 1; strain L; control azoles; previously reported (refs 5, 16); cited from earlier work
[11] = read-out: MIC (MIC-2), in parentheses

**Q.** With `C[C@@H](c1ncncc1F)[C@](O)(Cn1cncn1)c1ccc(F)cc1F` [VOR, voriconazole] as the compound, how does the MIC ([1]; read-out: MIC (MIC-2)) read?
**A.** The MIC was 0.06 µg/mL.

**Q.** What about the MIC [1, 11] of the same compound?
**A.** Its MIC is 0.17 µM.

**Q.** What about the MIC (Candida krusei ATCC 6258 [2]; read-out: MIC (MIC-2)) of the same compound?
**A.** Its MIC is 0.12 µg/mL.

**Q.** What about the MIC (Candida krusei ATCC 6258 [2]; [11]) of the same compound?
**A.** The MIC was 0.34 µM.

**Q.** What about the MIC ([3]; ATCC22019, read-out: MIC, Candida parapsilosis ATCC 22019 (J) (+10% FBS), Table 3, Ex.2 compounds, +10% FBS) of the same compound?
**A.** Its MIC is 0.015 µg/mL.

**Q.** And the MIC ([3]; ATCC22019, Table 3, Ex.2 compounds, no FBS, read-out: MIC, Candida parapsilosis ATCC 22019 (J) (no FBS))?
**A.** The MIC was 0.015 µg/mL.

**Q.** What about the MIC ([3]; ATCC22019, read-out: MIC (MIC-2)) of the same compound?
**A.** The MIC was < 0.03 µg/mL.

**Q.** What about the MIC ([3]; ATCC22019, read-out: MIC (MIC-2), in parentheses) of the same compound?
**A.** The MIC was < 0.06 µM.

**Q.** And the “PI dye uptake by fungal cells” value [4]?
**A.** Its value is “did not allow for PI uptake”.

**Q.** What about the “MIC (MIC-2)” value [5] of the same compound?
**A.** Its value is 0.24^c μg/mL.

**Q.** What about the “MIC (MIC-2)” value (C. albicans ATCC 64124) of the same compound?
**A.** Its value is 3.9^c μg/mL.

**Q.** What about the “MIC (MIC-2)” value [6] of the same compound?
**A.** The value was 7.8^c μg/mL.

**Q.** And the “MIC (MIC-2)” value [7]?
**A.** Its value is 0.06^c μg/mL.

**Q.** What about the “MIC (MIC-2)” value (Candida krusei ATCC 6258 [8]) of the same compound?
**A.** The value was 0.12^c μg/mL.

**Q.** And the “MIC (MIC-2)” value [9]?
**A.** The value was <0.03^c μg/mL.

**Q.** What about the “MIC (MIC-2)” value [10] of the same compound?
**A.** The value was 0.03^c μg/mL.
